From patent US20070225371A1, “Dermatological composition containing alkyl ureas” (priority 2006, published 2007)

How the values were obtained:
RNase A = molecular target: T1, RNase A (Bos taurus, UniProt P61823); assay: Thermal denaturation of protein RNase A in urea or 1-butyl urea solution (Poklar et al.); assay type: biochemical; conditions: for 0.7 M of 1-butyl urea; estimated from temperature profiles of conformational transition of RNase A
T1 sequence (P61823 27-150): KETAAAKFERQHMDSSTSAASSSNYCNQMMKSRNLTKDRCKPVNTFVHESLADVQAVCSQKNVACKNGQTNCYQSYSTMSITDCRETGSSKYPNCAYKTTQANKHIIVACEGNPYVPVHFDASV
Text: In their thermal denaturation studies of protein RNase A in alkyl urea solutions, Poklar et al., “Thermodynamic Stability of Ribonuclease A in Alkylurea Solutions and Preferential Solvation Changes Accompanying its Thermal Denaturation: A Calorimetric and Spectroscopic Study” in Protein Science, 8:832-840 (1999) report that the thermal stability of RNase A in solution decreases with increasing concentrations of denaturants and the size of the hydrophobic group substituted on the urea molecule.
Based on the temperature profiles of conformational transition (denaturation) of protein RNase A in urea or in 1-butyl urea solution, it can be estimated that 0.7 M of 1-butyl urea is equivalent to about 3.5 M of urea in terms of their protein denaturing capability. These studies provide a general guideline on estimating relative keratolytic activity of urea vs. 1-butyl urea in a dermatological composition.

[1] = equal to about 36 to 42% by weight; cited from earlier work

Compound	urea concentration equivalent in protein denaturing capability (RNase A)	concentration minimally needed to show any noticeable keratolytic or protein denaturing activity [1] [M]
CCCCNC(N)=O [1-butyl urea]	about 3.5 M	–
NC(N)=O [urea]	–	6 to 7
